{"source": "patent US8802597B2", "about": "“Herbicidal pyrimidines” (E I du Pont de Nemours and Company, priority 2003, dated 2014)", "assay_in_all_cases": "Test C pre/postemergence", "type_in_all_cases": "in vivo", "key": {"[1]": {"system": "Surinam grass (Brachiaria decumbens)", "conditions": "Preemergence, scale 0 to 100, 0 no effect, 100 complete control", "procedure,_shortened": "(§1)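 Greenhouse herbicide screen, visual readout. Compound in solvent/surfactant applied preemergence at planting or postemergence to 1- to 4-leaf plants; assessed at 12–14 days on a 0–100 control scale.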"}, "[2]": {"system": "bermudagrass (Cynodon dactylon)", "conditions": "Preemergence", "procedure,_shortened": "as §1"}, "[3]": {"system": "cocklebur (Xanthium strumarium)", "conditions": "Preemergence", "procedure,_shortened": "as §1"}, "[4]": {"system": "common (oilseed) sunflower (Helianthus annuus)", "conditions": "Preemergence, scale 0 to 100, 0 no effect, 100 complete control", "procedure,_shortened": "as §1"}, "[5]": {"system": "common ragweed (Ambrosia elatior)", "conditions": "Preemergence, scale 0 to 100, 0 no effect, 100 complete control", "procedure,_shortened": "as §1"}, "corn (Zea mays)": {"system": "corn (Zea mays)", "conditions": "Preemergence", "procedure,_shortened": "as §1"}, "[6]": {"system": "eastern black nightshade (Solanum ptycanthum)", "conditions": "Preemergence, scale 0 to 100, 0 no effect, 100 complete control", "procedure,_shortened": "as §1"}, "[7]": {"system": "johnsongrass (Sorghum halepense)", "conditions": "Preemergence", "procedure,_shortened": "as §1"}, "kochia (Kochia scoparia)": {"system": "kochia (Kochia scoparia)", "conditions": "Preemergence; for Plant response rating, Kochia: scale 0 to 100, 0 no effect, 100 complete control", "procedure,_shortened": "as §1"}, "[8]": {"system": "morningglory (Ipomoea coccinea)", "conditions": "Preemergence", "procedure,_shortened": "as §1"}, "[9]": {"system": "pigweed (Amaranthus retroflexus)", "conditions": "Preemergence, scale 0 to 100, 0 no effect, 100 complete control", "procedure,_shortened": "as §1"}, "[10]": {"system": "woolly cupgrass (Eriochloa villosa)", "conditions": "Preemergence", "procedure,_shortened": "as §1"}, "[11]": {"conditions": "16 g ai/ha, scale 0 to 100, 0 no effect, 100 complete control"}, "[12]": {"conditions": "31 g ai/ha, scale 0 to 100, 0 no effect, 100 complete control"}, "[13]": {"conditions": "62 g ai/ha, scale 0 to 100, 0 no effect, 100 complete control"}}}
{"smiles": "Nc1nc(C2CC2)nc(C(=O)[O-])c1Cl.[Na+]", "note": "[Compound 77, 6-amino-5-chloro-2-cyclopropyl-4-pyrimidinecarboxylic acid monosodium salt]", "values": [{"measurement": "Plant response rating, Surinam Grass", "setting": "[1]; 16 g ai/ha", "result": 0}, {"measurement": "pest or weed control at 31 g/ha", "setting": "[1]; Urochloa decumbens, pre-emergence, 31 g ai/ha, read-out: Plant response rating, Surinam Grass", "result": 0, "unit": "%"}, {"measurement": "pest or weed control at 62 g/ha", "setting": "[1]; Urochloa decumbens, pre-emergence, 62 g ai/ha, read-out: Plant response rating, Surinam Grass", "result": 0, "unit": "%"}, {"measurement": "pest or weed control at 31 g/ha", "setting": "[2]; Cynodon dactylon, pre-emergence, 31 g ai/ha, scale 0 to 100, 0 no effect, 100 complete control, read-out: Plant response rating, Bermudagrass", "result": 0, "unit": "%"}, {"measurement": "pest or weed control at 62 g/ha", "setting": "[2]; Cynodon dactylon, pre-emergence, 62 g ai/ha, scale 0 to 100, 0 no effect, 100 complete control, read-out: Plant response rating, Bermudagrass", "result": 0, "unit": "%"}, {"measurement": "pest or weed control at 125 g/ha", "setting": "[2]; Cynodon dactylon, pre-emergence, 125 g ai/ha, scale 0 to 100, read-out: Plant response rating, Bermudagrass", "result": 0, "unit": "%"}, {"measurement": "Plant response rating, Bermudagrass", "setting": "[2]; [11]", "result": 0}, {"measurement": "Plant response rating, Cocklebur", "setting": "[3]; [11]", "result": 55}, {"measurement": "Plant response rating, Cocklebur", "setting": "[3]; [12]", "result": 70}, {"measurement": "pest or weed control at 62 g/ha", "setting": "[3]; Xanthium strumarium, pre-emergence, 62 g ai/ha, scale 0 to 100, 0 no effect, 100 complete control, read-out: Plant response rating, Cocklebur", "result": 80, "unit": "%"}, {"measurement": "pest or weed control at 125 g/ha", "setting": "[3]; Xanthium strumarium, pre-emergence, 125 g ai/ha, scale 0 to 100, read-out: Plant response rating, Cocklebur", "result": 95, "unit": "%"}, {"measurement": "pest or weed control at 31 g/ha", "setting": "[4]; Helianthus annuus, pre-emergence, 31 g ai/ha, read-out: Plant response rating, Sunflower", "result": 50, "unit": "%"}, {"measurement": "pest or weed control at 62 g/ha", "setting": "[4]; Helianthus annuus, pre-emergence, 62 g ai/ha, read-out: Plant response rating, Sunflower", "result": 100, "unit": "%"}, {"measurement": "Plant response rating, Sunflower", "setting": "[4]; 16 g ai/ha", "result": 20}, {"measurement": "pest or weed control at 31 g/ha", "setting": "[5]; Ambrosia artemisiifolia, pre-emergence, 31 g ai/ha, read-out: Plant response rating, Ragweed", "result": 0, "unit": "%"}, {"measurement": "pest or weed control at 62 g/ha", "setting": "[5]; Ambrosia artemisiifolia, pre-emergence, 62 g ai/ha, read-out: Plant response rating, Ragweed", "result": 50, "unit": "%"}, {"measurement": "Plant response rating, Ragweed", "setting": "[5]; 16 g ai/ha", "result": 0}, {"measurement": "Plant response rating, Corn", "setting": "corn (Zea mays); [11]", "result": 0}, {"measurement": "Plant response rating, Corn", "setting": "corn (Zea mays); [12]", "result": 0}, {"measurement": "Plant response rating, Corn", "setting": "corn (Zea mays); [13]", "result": 0}, {"measurement": "Plant response rating, Corn", "setting": "corn (Zea mays); 125 g ai/ha, scale 0 to 100", "result": 35}, {"measurement": "Plant response rating, Nightshade", "setting": "[6]; 16 g ai/ha", "result": 0}, {"measurement": "Plant response rating, Nightshade", "setting": "[6]; 31 g ai/ha", "result": 0}, {"measurement": "Plant response rating, Nightshade", "setting": "[6]; 62 g ai/ha", "result": 0}, {"measurement": "Plant response rating, Johnsongrass", "setting": "[7]; [11]", "result": 0}, {"measurement": "Plant response rating, Johnsongrass", "setting": "[7]; [13]", "result": 0}, {"measurement": "Plant response rating, Johnsongrass", "setting": "[7]; 125 g ai/ha, scale 0 to 100", "result": 0}, {"measurement": "pest or weed control at 31 g/ha", "setting": "[7]; Sorghum halepense, pre-emergence, 31 g ai/ha, scale 0 to 100, 0 no effect, 100 complete control, read-out: Plant response rating, Johnsongrass", "result": 0, "unit": "%"}, {"measurement": "pest or weed control at 125 g/ha", "setting": "kochia (Kochia scoparia); Bassia scoparia, pre-emergence, 125 g ai/ha, scale 0 to 100, read-out: Plant response rating, Kochia", "result": 80, "unit": "%"}, {"measurement": "Plant response rating, Kochia", "setting": "kochia (Kochia scoparia); 16 g ai/ha", "result": 20}, {"measurement": "Plant response rating, Kochia", "setting": "kochia (Kochia scoparia); 62 g ai/ha", "result": 50}, {"measurement": "Plant response rating, Morningglory", "setting": "[8]; [11]", "result": 5}, {"measurement": "Plant response rating, Morningglory", "setting": "[8]; [12]", "result": 50}, {"measurement": "Plant response rating, Morningglory", "setting": "[8]; [13]", "result": 50}, {"measurement": "Plant response rating, Morningglory", "setting": "[8]; 125 g ai/ha, scale 0 to 100", "result": 75}, {"measurement": "pest or weed control at 31 g/ha", "setting": "[9]; Amaranthus retroflexus, pre-emergence, 31 g ai/ha, read-out: Plant response rating, Pigweed", "result": 60, "unit": "%"}, {"measurement": "pest or weed control at 62 g/ha", "setting": "[9]; Amaranthus retroflexus, pre-emergence, 62 g ai/ha, read-out: Plant response rating, Pigweed", "result": 65, "unit": "%"}, {"measurement": "Plant response rating, Pigweed", "setting": "[9]; 16 g ai/ha", "result": 60}, {"measurement": "pest or weed control at 31 g/ha", "setting": "[10]; Eriochloa villosa, pre-emergence, 31 g ai/ha, scale 0 to 100, 0 no effect, 100 complete control, read-out: Plant response rating, Cupgrass, Woolly", "result": 0, "unit": "%"}, {"measurement": "pest or weed control at 62 g/ha", "setting": "[10]; Eriochloa villosa, pre-emergence, 62 g ai/ha, scale 0 to 100, 0 no effect, 100 complete control, read-out: Plant response rating, Cupgrass, Woolly", "result": 0, "unit": "%"}, {"measurement": "pest or weed control at 125 g/ha", "setting": "[10]; Eriochloa villosa, pre-emergence, 125 g ai/ha, scale 0 to 100, read-out: Plant response rating, Cupgrass, Woolly", "result": 0, "unit": "%"}, {"measurement": "Plant response rating, Cupgrass, Woolly", "setting": "[10]; [11]", "result": 0}]}
